Columns and labels:
Type in all cases: cell-based, mouse
[1] = tested on: day 17 EB derived hepatocyte lineage cells (ES cell line D3); test: In situ indirect immunofluorescent intracellular albumin analysis; parameters: key to Intracellular ALB: A (+) represents at least one time point of significant expression or secretion function in the three conditions.; A (−) represents functions which were absent on all experimental days
Method: In order to induce differentiation, cells were suspended in Iscove's modified Dulbecco's medium (Gibco) containing 20% fetal bovine serum (Gibco), 4 mM L-glutamine (Gibco), 100 U/ml penicillin, 100 U/ml streptomycin (Gibco), 10 ug/ml gentamicin (Gibco). Embryoid bodies were formed and cultured for two days using the hanging drop method (1×10^3 ES cells per 30 ul drop). Hanging drops where transferred to suspension culture in 100 mm petri dishes and cultured for an additional 2 days. The EB's were then plated, one EB per well, in 6 well tissue culture polystyrene plates (BD-Biosciences) for an additional 14 days. For secondary culture day 17 EBs cells were detached following incubation with 0.5 ml of trypsin (Gibco) for three minutes, resulting in a single cell suspension, and subsequently the addition of IMDM media. Cells from day 17 EB's were used because it has been observed that hepatocyte function is greatest on day 17. Cells were then re-plated in 6 well tissue culture polystyrene (BD-Biosciences) at an initial seeding density of 5×10^4 day 17 cells per well for further analysis. Culture medium was changed every forty eight hours. When OSM and SNAP were supplemented, 10 ng/ml OSM and 250 μM SNAP were added to the culture medium. When collagen sandwich culture was used, rat tail type I collagen (BD-Biosciences) gels were prepared by distributing 350 μL of collagen gel solution (3 parts 1.33×DMEM, pH 7.4, and 1 part collagen solution at 4 mg/mL, chilled on ice and mixed immediately prior to use) evenly over one well of a six well plate (BD-Biosciences) and incubated at 37° C. for at least one hour before use. 5×10^5 cells were seeded in 2 mL of IMDM media on day 0 and an additional 350 μL of collagen gel solution was distributed over the cells after 1 day of culture. Therefore, the second layer of collagen is added on day 1 of secondary culture protocol. One hour of incubation at 37° C. was allowed for gelation and attachment of the second gel layer before the medium was replaced. Culture medium was changed every forty eight hours. […]

[2] = tested on: day 17 EB derived hepatocyte lineage cells (ES cell line D3); test: In situ indirect immunofluorescent cytokeratin-18 analysis; parameters: key to CK18: A (+) represents at least one time point of significant expression or secretion function in the three conditions.; A (−) represents functions which were absent on all experimental days
Method: (§1) In order to induce differentiation, cells were suspended in Iscove's modified Dulbecco's medium (Gibco) containing 20% fetal bovine serum (Gibco), 4 mM L-glutamine (Gibco), 100 U/ml penicillin, 100 U/ml streptomycin (Gibco), 10 ug/ml gentamicin (Gibco). Embryoid bodies were formed and cultured for two days using the hanging drop method (1×10^3 ES cells per 30 ul drop). Hanging drops where transferred to suspension culture in 100 mm petri dishes and cultured for an additional 2 days. The EB's were then plated, one EB per well, in 6 well tissue culture polystyrene plates (BD-Biosciences) for an additional 14 days. For secondary culture day 17 EBs cells were detached following incubation with 0.5 ml of trypsin (Gibco) for three minutes, resulting in a single cell suspension, and subsequently the addition of IMDM media. Cells from day 17 EB's were used because it has been observed that hepatocyte function is greatest on day 17. Cells were then re-plated in 6 well tissue culture polystyrene (BD-Biosciences) at an initial seeding density of 5×10^4 day 17 cells per well for further analysis. Culture medium was changed every forty eight hours. When OSM and SNAP were supplemented, 10 ng/ml OSM and 250 μM SNAP were added to the culture medium. […]

[3] = tested on: day 17 EB derived hepatocyte lineage cells (ES cell line D3); test: Sandwich ELISA for detection of albumin secretion; parameters: key to ALB Secretion: A (+) represents at least one time point of significant expression or secretion function in the three conditions.; A (−) represents functions which were absent on all experimental days
Method: as §1, with “17.” for “17. Cells were then re-plated in 6 well tissue culture polystyrene (BD-Biosciences) at an initial seeding density of 5×10^4 day 17 cells per well for further analysis. Culture medium was changed every forty eight hours. When OSM and SNAP were supplemented, 10 ng/ml OSM and 250 μM SNAP were added to the culture medium.”
In order to detect secreted albumin within the media supernatants obtained on each of the analysis days, we used a commercially available mouse albumin ELISA kit (Bethyl Laboratories, #E90-134). […] Absorbance readings were obtained using a Biorad (Hercules, Calif.) Model 680 plate reader with a 450 nm emission filter. Albumin values were normalized to the cell number recorded on the day of media sample collection.

[4] = tested on: day 17 EB derived hepatocyte lineage cells (ES cell line D3); test: Urea secretion; parameters: key to Urea: A (+) represents at least one time point of significant expression or secretion function in the three conditions.; A (−) represents functions which were absent on all experimental days
Method: as §1, with “analysis.” for “analysis. Culture medium was changed every forty eight hours. When OSM and SNAP were supplemented, 10 ng/ml OSM and 250 μM SNAP were added to the culture medium.”
Media samples were collected on all analysis days. […] Absorbance readings were obtained using a Biorad (Hercules, Calif.) Model 680 plate reader with a 585 nm emission filter. Urea values were normalized to the cell number recorded on the day of media sample collection.

[5] = tested on: day 17 EB derived hepatocyte lineage cells (ES cell line D3); test: Cytochrome P450 activity (resorufin o-dealkylase, BROD/MROD); parameters: key to CYP450: A (+) represents at least one time point of significant expression or secretion function in the three conditions.; A (−) represents functions which were absent on all experimental days
Method: On evaluation days 4, 6, 8 and 10 days in secondary culture, cells were re-plated into 12 well plates. 3-Methylcholanthrene was used at a concentration of 2 μM (Sigma-Aldrich) for 48 hours prior to the addition of resorufin as an inducer of cytochrome P450 activities. Cytochrome P450-dependent resorufin o-dealkylase activity (BROD, PROD, EROD, and MROD) was measured using resorufin substrates namely pentoxy-, benzyloxy-, ethoxy-, and methoxyresorufin from a Resorufin Sampler Kit (Invitorgen, Carlsbad, Calif.). […] The fluorescence of the plate was measured using a fluorescence plate reader (DTX880, Beckman Coltour, Fullerton, Calif., ext. 530 nm and emis. 590 nm) at the end of min incubation. A standard curve of resorufin fluorescence was constructed using concentrations ranging from 1 to 1,000 nmol in EBSS. […] The constructed standard curve was used to convert the fluorescence values obtained from the plate reader to nanomoles of resorufin. Rate of formation of resorufin, as calculated from the early linear increase in the fluorescence curve, was defined as cytochrome P450 activity and expressed as nmol/min.
Cytochrome P450 enzymes play a key role in detoxifying xenobiotics and were used in these studies to asses hepatocyte function. […] BROD and MROD activity can be determined from the enzymatic conversion of resorufin.

[6] = tested on: day 17 EB derived hepatocyte lineage cells (ES cell line D3); test: Glycogen storage; parameters: key to Glycogen: A (+) represents at least one time point of significant expression or secretion function in the three conditions.; A (−) represents functions which were absent on all experimental days
[7] = tested on: day 17 EB derived hepatocyte lineage cells (ES cell line D3); test: Cell number / proliferation in secondary culture; conditions: collagen sandwich configuration, within 10 days
Method: as §1, with “media.” for “media. Cells from day 17 EB's were used because it has been observed that hepatocyte function is greatest on day 17. Cells were then re-plated in 6 well tissue culture polystyrene (BD-Biosciences) at an initial seeding density of 5×10^4 day 17 cells per well for further analysis. Culture medium was changed every forty eight hours. When OSM and SNAP were supplemented, 10 ng/ml OSM and 250 μM SNAP were added to the culture medium.”
Therefore, cultures were established to study the maintenance and augmentation of hepatocyte like function previously observed after 17 days of spontaneous EB mediated differentiation. Hepatocyte lineage maintenance was initially assessed by examining the dynamics of cell growth following removal of cells from their primary EB culture and re-plating into tissue culture polystyrene. 5×10^4 cells from day 17 EB cultures were re-plated into one well of a six well plate and evaluated on days 4, 6, 8 and 10 days post re-plating. […]

[8] = polystyrene secondary culture, 10 ng/ml OSM or 250 μM SNAP, days 4-10
[9] = polystyrene culture, OSM or SNAP supplemented

Oncostatin-M [OSM]
albumin expression (percentage of cells expressing albumin) ([1]; collagen sandwich culture, 10 days post re-plating): 80%
Intracellular ALB [1, 8]: +
Time for which ALB expression was maintained ([1]; polystyrene secondary/tertiary culture, supplemented, SNAP at a lower level): up to eight
CK18 expression [2, 9]: not detected at any level
CK18 [2, 8]: −
albumin secretion [3, 9]: not detected at any level
ALB Secretion [3, 8]: −
Urea secretion time course ([4]; polystyrene culture, supplemented): greatest at day eight
Urea [4, 8]: +
CYP450 mediated detoxification [5, 9]: not detected at any level
CYP450 [5, 8]: −
glycogen storage [6, 9]: not detected at any level
Glycogen [6, 8]: −
cell number reached from 5×10^4 Day 17 cells [7]: 1×10^6 cells
